Assay results published in ChEMBL document CHEMBL1201862, “PubChem BioAssay data set” (2004).
Active and inactive are the calls of the source.

Tests used:
[1] = molecular target: T1, Short transient receptor potential channel 4 (Mus musculus, UniProt Q9QUQ5); test: block of DAMGO-driven TRPC4 calcium entry – cell-based, HEK293 TRPC4/mu-opioid, Fluo-4 calcium, dose response (AID 434942); type: functional;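 further: potency of inhibitors blocking the TRPC4 calcium response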
T1 sequence (Q9QUQ5 whole entry): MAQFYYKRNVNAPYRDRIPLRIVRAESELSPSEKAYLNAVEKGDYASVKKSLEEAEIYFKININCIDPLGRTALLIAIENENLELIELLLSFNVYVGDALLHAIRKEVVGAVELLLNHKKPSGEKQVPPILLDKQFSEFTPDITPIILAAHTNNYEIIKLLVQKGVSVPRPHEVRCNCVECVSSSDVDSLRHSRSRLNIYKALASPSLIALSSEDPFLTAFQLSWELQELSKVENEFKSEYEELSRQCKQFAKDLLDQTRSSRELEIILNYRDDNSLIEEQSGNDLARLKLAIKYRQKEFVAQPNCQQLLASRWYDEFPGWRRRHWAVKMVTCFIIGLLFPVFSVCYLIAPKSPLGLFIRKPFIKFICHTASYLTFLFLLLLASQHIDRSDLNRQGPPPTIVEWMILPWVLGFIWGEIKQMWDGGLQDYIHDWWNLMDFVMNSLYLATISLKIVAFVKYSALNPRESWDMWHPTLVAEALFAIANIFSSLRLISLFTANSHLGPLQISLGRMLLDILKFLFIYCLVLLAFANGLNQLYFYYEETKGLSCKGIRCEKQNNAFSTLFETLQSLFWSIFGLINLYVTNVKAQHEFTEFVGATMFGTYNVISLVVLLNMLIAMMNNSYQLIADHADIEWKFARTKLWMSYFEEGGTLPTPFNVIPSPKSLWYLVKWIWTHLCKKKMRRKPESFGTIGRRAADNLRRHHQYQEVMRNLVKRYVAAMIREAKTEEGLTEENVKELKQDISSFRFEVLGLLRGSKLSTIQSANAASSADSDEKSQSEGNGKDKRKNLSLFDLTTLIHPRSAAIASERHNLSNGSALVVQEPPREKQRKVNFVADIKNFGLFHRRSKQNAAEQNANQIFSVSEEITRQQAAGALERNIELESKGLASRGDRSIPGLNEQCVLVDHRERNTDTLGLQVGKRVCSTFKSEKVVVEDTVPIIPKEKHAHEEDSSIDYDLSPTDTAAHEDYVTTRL

[2] = molecular target: T2, DNA repair protein RAD52 homolog (Homo sapiens, UniProt P43351); type: functional, biochemical
T2 sequence (P43351 whole entry): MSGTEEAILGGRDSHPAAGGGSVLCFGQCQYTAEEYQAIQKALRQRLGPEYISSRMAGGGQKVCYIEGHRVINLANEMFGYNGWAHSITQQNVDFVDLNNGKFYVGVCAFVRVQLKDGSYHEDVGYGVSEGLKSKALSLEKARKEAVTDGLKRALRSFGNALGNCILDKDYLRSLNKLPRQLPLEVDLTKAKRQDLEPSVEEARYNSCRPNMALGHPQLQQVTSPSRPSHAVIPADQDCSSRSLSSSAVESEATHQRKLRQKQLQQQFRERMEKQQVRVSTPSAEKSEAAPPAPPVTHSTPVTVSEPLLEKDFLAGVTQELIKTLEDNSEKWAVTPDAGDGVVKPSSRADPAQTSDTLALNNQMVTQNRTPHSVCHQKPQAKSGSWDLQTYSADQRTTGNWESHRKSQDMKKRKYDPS

Aminopeptidase N = molecular target: T3, Aminopeptidase N (Plasmodium falciparum FcB1/Columbia, UniProt O96935); test: malaria alanyl aminopeptidase activity blockers – biochemical, fluorogenic H-Leu-NHMec substrate, 1536-well (AID 1445); parameters: species or system Plasmodium falciparum 3D7, 3D7
T3 sequence (O96935 whole entry): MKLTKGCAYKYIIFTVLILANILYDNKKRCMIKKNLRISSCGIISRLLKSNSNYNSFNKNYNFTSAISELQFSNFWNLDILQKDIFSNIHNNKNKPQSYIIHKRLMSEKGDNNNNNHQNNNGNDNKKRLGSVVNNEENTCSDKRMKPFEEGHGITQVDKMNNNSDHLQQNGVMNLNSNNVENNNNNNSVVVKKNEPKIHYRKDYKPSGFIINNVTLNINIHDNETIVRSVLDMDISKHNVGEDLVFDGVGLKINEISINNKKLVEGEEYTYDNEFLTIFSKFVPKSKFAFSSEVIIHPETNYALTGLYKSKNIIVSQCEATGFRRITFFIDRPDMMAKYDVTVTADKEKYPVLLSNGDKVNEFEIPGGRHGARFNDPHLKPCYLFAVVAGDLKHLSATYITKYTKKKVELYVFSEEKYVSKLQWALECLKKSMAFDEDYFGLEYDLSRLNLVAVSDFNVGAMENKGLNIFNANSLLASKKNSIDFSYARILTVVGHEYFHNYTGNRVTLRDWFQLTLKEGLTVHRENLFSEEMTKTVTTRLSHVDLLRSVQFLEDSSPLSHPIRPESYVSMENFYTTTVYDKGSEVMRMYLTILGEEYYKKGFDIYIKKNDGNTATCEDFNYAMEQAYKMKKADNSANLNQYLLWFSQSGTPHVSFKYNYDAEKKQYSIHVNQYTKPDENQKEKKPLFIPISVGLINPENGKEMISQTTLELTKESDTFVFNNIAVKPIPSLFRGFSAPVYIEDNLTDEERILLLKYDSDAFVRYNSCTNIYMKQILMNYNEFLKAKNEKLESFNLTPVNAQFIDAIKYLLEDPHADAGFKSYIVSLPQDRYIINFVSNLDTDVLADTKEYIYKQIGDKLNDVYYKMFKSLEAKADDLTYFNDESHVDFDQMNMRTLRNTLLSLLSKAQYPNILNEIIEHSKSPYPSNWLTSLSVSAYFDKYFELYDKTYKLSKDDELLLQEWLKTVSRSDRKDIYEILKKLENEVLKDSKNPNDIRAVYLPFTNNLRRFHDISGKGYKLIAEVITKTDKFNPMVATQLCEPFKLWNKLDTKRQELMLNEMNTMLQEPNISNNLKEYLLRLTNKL

[3] = A Cell Based Secondary Assay To Explore Cytotoxicity of Compounds that Sensitize Mycobacterium Tuberculosis to Beta-Lactam Antibiotics.; type: functional
Protein skinhead-1 = molecular target: T4, Protein skinhead-1 (Caenorhabditis elegans, UniProt P34707); type: functional
T4 sequence (P34707 whole entry): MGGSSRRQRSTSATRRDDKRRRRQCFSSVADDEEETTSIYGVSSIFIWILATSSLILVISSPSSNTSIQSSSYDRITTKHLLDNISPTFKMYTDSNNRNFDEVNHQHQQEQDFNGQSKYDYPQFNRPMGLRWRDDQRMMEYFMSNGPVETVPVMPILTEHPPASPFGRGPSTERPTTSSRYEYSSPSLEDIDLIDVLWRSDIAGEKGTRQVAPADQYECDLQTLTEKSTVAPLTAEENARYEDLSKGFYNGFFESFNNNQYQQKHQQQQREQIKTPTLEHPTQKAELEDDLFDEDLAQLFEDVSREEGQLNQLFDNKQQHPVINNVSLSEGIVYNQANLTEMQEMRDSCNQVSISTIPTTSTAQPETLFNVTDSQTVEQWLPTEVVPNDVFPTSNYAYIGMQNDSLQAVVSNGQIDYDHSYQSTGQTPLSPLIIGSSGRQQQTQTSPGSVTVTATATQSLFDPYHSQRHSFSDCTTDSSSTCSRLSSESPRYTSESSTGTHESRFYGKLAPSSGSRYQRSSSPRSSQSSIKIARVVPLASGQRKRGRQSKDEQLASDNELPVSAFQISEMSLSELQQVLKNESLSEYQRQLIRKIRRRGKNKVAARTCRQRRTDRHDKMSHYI

[4] = molecular target: T5, Replicative DNA helicase DnaB (Mycobacterium tuberculosis, UniProt P9WMR3); test: DnaB intein splicing inhibitors, dose response, biochemical, cell-free fluorescence (AID 449749); type: functional
T5 sequence (P9WMR3 whole entry): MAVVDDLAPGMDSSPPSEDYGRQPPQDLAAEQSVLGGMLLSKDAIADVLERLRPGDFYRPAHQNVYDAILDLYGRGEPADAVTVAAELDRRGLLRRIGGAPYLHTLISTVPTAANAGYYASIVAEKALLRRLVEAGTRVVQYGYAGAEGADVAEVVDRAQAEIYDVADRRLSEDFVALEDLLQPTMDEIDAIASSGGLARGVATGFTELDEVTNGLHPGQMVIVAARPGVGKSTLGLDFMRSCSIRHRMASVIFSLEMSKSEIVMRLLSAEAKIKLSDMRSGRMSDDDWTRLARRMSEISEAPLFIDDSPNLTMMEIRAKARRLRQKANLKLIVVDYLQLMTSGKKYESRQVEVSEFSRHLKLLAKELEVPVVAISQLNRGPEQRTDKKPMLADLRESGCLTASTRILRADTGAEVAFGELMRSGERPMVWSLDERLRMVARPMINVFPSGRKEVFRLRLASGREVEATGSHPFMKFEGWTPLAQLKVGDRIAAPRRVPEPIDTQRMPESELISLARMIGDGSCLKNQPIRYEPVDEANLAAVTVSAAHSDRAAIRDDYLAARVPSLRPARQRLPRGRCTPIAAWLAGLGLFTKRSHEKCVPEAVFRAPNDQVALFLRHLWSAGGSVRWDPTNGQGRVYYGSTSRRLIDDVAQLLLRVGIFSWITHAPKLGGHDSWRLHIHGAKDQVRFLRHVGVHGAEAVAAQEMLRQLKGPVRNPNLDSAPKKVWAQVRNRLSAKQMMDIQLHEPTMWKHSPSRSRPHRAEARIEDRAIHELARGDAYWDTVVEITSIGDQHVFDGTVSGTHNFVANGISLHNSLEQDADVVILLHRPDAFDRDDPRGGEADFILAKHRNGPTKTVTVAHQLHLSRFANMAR

Protein RecA = molecular target: T6, Protein RecA (Mycobacterium tuberculosis, UniProt P9WHJ3); test: Fluorescence Cell-Free Homogeneous Dose Retest to Identify Inhibitors of RecA-Intein Splicing Activity. [Related pubchem assays (depositor defined):AID2097, AID2223, AID489010, AID492950]; type: functional
T6 sequence (P9WHJ3 whole entry): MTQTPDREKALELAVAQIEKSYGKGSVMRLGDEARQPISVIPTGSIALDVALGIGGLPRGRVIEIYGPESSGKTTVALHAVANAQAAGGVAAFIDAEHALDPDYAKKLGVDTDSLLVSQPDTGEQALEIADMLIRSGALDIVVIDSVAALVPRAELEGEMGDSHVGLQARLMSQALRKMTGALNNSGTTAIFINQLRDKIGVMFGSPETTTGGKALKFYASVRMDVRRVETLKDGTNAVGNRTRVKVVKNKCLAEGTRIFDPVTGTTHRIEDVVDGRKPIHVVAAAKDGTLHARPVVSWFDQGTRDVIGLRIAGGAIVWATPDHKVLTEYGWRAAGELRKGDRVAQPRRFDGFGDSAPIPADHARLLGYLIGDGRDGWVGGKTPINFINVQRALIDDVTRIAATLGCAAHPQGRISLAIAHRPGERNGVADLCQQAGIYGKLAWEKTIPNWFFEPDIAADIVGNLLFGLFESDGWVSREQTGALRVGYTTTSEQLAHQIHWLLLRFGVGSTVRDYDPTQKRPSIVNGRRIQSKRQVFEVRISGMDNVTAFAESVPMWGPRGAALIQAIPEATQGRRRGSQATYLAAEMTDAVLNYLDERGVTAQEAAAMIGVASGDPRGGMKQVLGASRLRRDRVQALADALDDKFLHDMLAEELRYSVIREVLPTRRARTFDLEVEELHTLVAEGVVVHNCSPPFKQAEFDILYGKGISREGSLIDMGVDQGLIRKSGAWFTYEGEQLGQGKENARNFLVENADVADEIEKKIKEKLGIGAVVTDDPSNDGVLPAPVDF

[5] = NIH-3T3 fibroblast cytotoxicity, dose response, cytotoxicity control, cell-based, fluorescence, Alamar Blue, secondary assay (AID 2327); type: functional;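 further: NIH-3T3 mouse fibroblasts cultured with fluconazole at 8 µg/mL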
[6] = viability of uninfected HEp-2 cells – cell-based, HTS, cytotoxicity control for RSV inhibitor project, dose response (AID 2410); type: functional; conditions: human respiratory syncytial virus
[7] = test system: Streptococcus sp. 'group A'; test: Streptococcus pyogenes SK(-)GAS viability under kanamycin – luminescence, BacTiterGlo, confirmation, counter-screen for streptokinase expression inhibitor project, dose response (AID 1900); type: functional, organism-based
cells [8] = type: functional, cell-based
[9] = fluconazole-exposed Candida albicans growth modulators – fluorescence, retest, confirmation (AID 2467); type: functional, cell-based
cells [10] = type: functional, cell-based; remark: listed apart in the source
Streptococcus = test: GAS UMAA2166 growth inhibition – luminescence, BacTiterGlo, counter-screen for streptokinase expression inhibitor project, dose response (AID 1915); type: functional, organism-based;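 further: potency for reduction of bacterial viability or growth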

## Cc1ccc(-c2csc(N(CCCN(C)C)C(=O)c3ccco3)n2)cc1
[1]
  EC50: 2.11 µM (active)
[2]
  AC50: 11.7 µM (active)

## O=C(O)c1ccc(NC(S)=NC(NC(=O)c2ccco2)C(Cl)(Cl)Cl)cc1 (stereo unspecified)
Aminopeptidase N
  IC50: 60.5 µM (active)

## C[C@H](NC(=O)c1[nH]cnc1C(=O)Nc1ccc(Cl)cc1)C(=O)OC(C)(C)C
[3]
  CC50: 16.7 µM (active)
Protein skinhead-1
  IC50: > 100 µM (inactive)

## Brc1ccc(CNc2ccc3ncccc3c2)cc1
[3]
  CC50: > 40 µM (active)
[4]
  AC50: > 380 µM (inactive)
Protein RecA
  EC50: > 380 µM (inactive)

## COC(=O)Cc1c(C)c2ccc(O)c(CN3CCCC(C)C3)c2oc1=O (stereo unspecified)
Aminopeptidase N
  IC50: 30 µM (active)

## Cc1ccc(O)c(Sc2cc(C)ccc2O)c1
[1]
  EC50: 3.76 µM (active)

## Cc1c(O)c(CN2CCCC2)cc2c3c(c(=O)oc12)CCC3
Aminopeptidase N
  IC50: 42.6 µM (active)

## O=Cc1cc(N=Nc2ccccc2Cl)ccc1O
[5]
  EC50: > 160 µM (inactive)
[6]
  CC50: 7.07 µM (active)
[7]
  EC50: 5.05 µM (active)
Cells [8]
  EC50: 198 µM (active)
[9]
  EC50: > 38 µM (not active)
Cells [10]
  EC50: > 350 µM (not active)
Streptococcus
  EC50: 6.24 µM (active)
[1]
  EC50: 15 µM (active)

## CCC(C)NC(C(=O)Nc1ccc(Cl)c([N+](=O)[O-])c1)c1ccccc1 (stereo unspecified)
[1]
  EC50: 7.5 µM (active)

## Cc1cc(=O)oc2cc3c(cc12)OCCN3
Aminopeptidase N
  IC50: 32.8 µM (active)
